Test results taken from ChEMBL document CHEMBL6096671, “Discovery of VU6024578/BI02982816: An mGlu1 Positive Allosteric Modulator with Efficacy in Preclinical Antipsychotic and Cognition Models” (J Med Chem, 2024).
pEC50, pIC50: −log10 of the molar value. Values belong to the compound of their own block, whether it stands above or below them. The source made the active and inactive calls. No cut-off for these calls is given here.

Experiments:
[1] = target: T1, Metabotropic glutamate receptor 1 (Homo sapiens, UniProt Q13255); experiment: Positive allosteric modulation of human mGlu1
[2] = Unbound initial plasma concentration in male dog; type: ADME, Canis lupus familiaris
[3] = Initial plasma concentration in male dog; type: ADME, Canis lupus familiaris; conditions: read-out: C0
[4] = Toxicity in male Sprague-Dawley rat assessed as catalepsy at 1.5 mg/kg, ip measured after 100 mins; type: organism-based; conditions: in vivo, 1.667 h
[5] = target: Metabotropic glutamate receptor 8 (Homo sapiens, UniProt O00222); experiment: Positive allosteric modulation of human mGlu8 receptor
[6] = target: Metabotropic glutamate receptor 2 (Rattus norvegicus, UniProt P31421); experiment: Positive allosteric modulation of rat mGlu2 receptor
[7] = target: Metabotropic glutamate receptor 5 (Rattus norvegicus, UniProt P31424); experiment: Positive allosteric modulation of rat mGlu5 receptor
[8] = target: Metabotropic glutamate receptor 2 (Homo sapiens, UniProt Q14416); experiment: Positive allosteric modulation of human mGlu2 receptor
[9] = Toxicity in male Wistar rat assessed as reduction in delta power at 10 mg/kg, po measured at 60 to 240 mins post treatment by EEG analysis; type: organism-based; conditions: in vivo, time 60-240 min
[10] = Drug metabolism in human liver microsomes assessed as furanyl ring oxidation incubated for 60 mins; type: ADME, Microsome; conditions: 1 h
[11] = Drug metabolism in rat liver microsomes assessed as furanyl ring oxidation incubated for 60 mins; type: ADME, Microsome; conditions: 1 h
[12] = Toxicity in male Wistar rat assessed as improvement in sleep-wake profile by measuring active wake state at 10 mg/kg, po measured at 120 mins post treatment by EEG analysis; type: organism-based; conditions: in vivo, 2 h
[13] = Drug metabolism in human liver microsomes assessed as furanyl ring opening incubated for 60 mins; type: ADME, Microsome; conditions: 1 h
[14] = target: Metabotropic glutamate receptor 3 (Rattus norvegicus, UniProt P31422); experiment: Positive allosteric modulation of rat mGlu3 receptor
[15] = Mutagenicity in Salmonella typhimurium by Ames test; type: toxicity; conditions: salmonella enterica subsp. enterica serovar typhimurium
[16] = Unbound brain concentration in amphetamine-induced hyperlocomotion male Sprague-Dawley rat model at 3 mg/kg, po pretreated for 2.5 hrs; type: ADME, organism-based; conditions: in vivo
[17] = Glutathione reactivity in rat liver microsomes incubated for 1 hr in presence of glutathione; type: ADME, Microsome
[18] = tested on: Rattus norvegicus; experiment: Antipsychotic efficacy against amphetamine-induced hyperlocomotion in male Sprague-Dawley rat assessed as reversal of hyperlocomotive state administered orally pretreated with compound followed by amphetamine addition and measured after 90 mins; type: functional, organism-based; conditions: dose 1-10 mg/kg, route po
[19] = Unbound brain concentration in amphetamine-induced hyperlocomotion male Sprague-Dawley rat model at 10 mg/kg, po; type: ADME, organism-based; conditions: in vivo
[20] = target: Metabotropic glutamate receptor 7 (Rattus norvegicus, UniProt P35400); experiment: Positive allosteric modulation of rat mGlu7 receptor
[21] = Unbound brain concentration in male Sprague-Dawley rat at 3 mg/kg, po in 10% tween 80 formulation measured at 15 to 420 mins by LC-MS/MS analysis; type: ADME, organism-based; conditions: in vivo, time 15-420 min
[22] = Unbound brain concentration in amphetamine-induced hyperlocomotion male Sprague-Dawley rat model at 10 mg/kg, po measured after 6.5 hrs; type: ADME, organism-based; conditions: in vivo
[23] = Toxicity in male Wistar rat assessed as change in body temperature at 10 mg/kg, po measured at 120 mins post treatment by EEG analysis; type: organism-based; conditions: in vivo, 2 h
[24] = tested on: Rattus norvegicus; experiment: Antipsychotic efficacy against MK-801-induced po dosed male Sprague-Dawley rat assessed as reversal of MK-801 disruption by measuring recognition index measured after 30 mins by novel object recognition test; type: functional, organism-based; conditions: dose 1-10 mg/kg
[25] = tested on: Mus musculus; experiment: Reversal of MK-801 induced deficits in male C57BL/6JRj mouse model assessed as 40 Hz ASSR in prefrontal cortex at 4 to 10 mg/kg, sc measured after 15 mins; type: functional, organism-based; conditions: dose 4-10 mg/kg
[26] = tested on: Rattus norvegicus; experiment: Antipsychotic activity in male Sprague-Dawley rat assessed as reduction in amphetamine-induced locomotor activity by measuring reversal of total ambulation at 3 mg/kg, po pretreated for 1 hrs followed by amphetamine addition and measured at 95 to 180 mins relative to control; type: functional; parameters: scale not given: the % may be the effect or the level left
[27] = Unbound brain concentration in amphetamine-induced hyperlocomotion male Sprague-Dawley rat model at 3 mg/kg, po measured after 2.5 hrs; type: ADME, organism-based; conditions: in vivo
[28] = tested on: Rattus norvegicus; experiment: Antipsychotic activity in male Sprague-Dawley rat assessed as reduction in amphetamine-induced locomotor activity by measuring reversal of total ambulation at 10 mg/kg, po pretreated for 5 hrs followed by amphetamine addition and measured at 95 to 180 mins relative to control; type: functional; parameters: scale not given: the % may be the effect or the level left
[29] = target: Metabotropic glutamate receptor 5 (Homo sapiens, UniProt P41594); experiment: Positive allosteric modulation of human mGlu5 receptor
[30] = target: Metabotropic glutamate receptor 7 (Homo sapiens, UniProt Q14831); experiment: Positive allosteric modulation of human mGlu7 receptor
[31] = Toxicity in male Wistar rat assessed as reduction in non rapid eye movement sleep at 1 to 10 mg/kg, po measured at 30 to 120 mins post treatment by EEG analysis; type: organism-based; conditions: in vivo, dose lower 1 mg/kg, time lower 30 min, dose upper 10 mg/kg, time upper 120 min
[32] = tested on: Mus musculus; experiment: Reversal of MK-801 induced deficits in male C57BL/6JRj mouse model assessed as 40 Hz ASSR in prefrontal cortex at 0.8 mg/kg, sc measured after 15 mins; type: functional, organism-based
[33] = Toxicity in male Wistar rat assessed as increase in motor activity at 10 mg/kg, po measured at 120 mins post treatment by EEG analysis; type: organism-based; conditions: in vivo, 2 h
[34] = Stability of compound at pH 2.2; type: physicochemical; conditions: buffer
[35] = Unbound initial plasma concentration in male dog at 0.5 mg/kg, iv; type: ADME, organism-based, Canis lupus familiaris; conditions: in vivo
[36] = Stability of compound at pH 7.4; type: physicochemical; conditions: buffer
[37] = Antagonist activity at peripheral Benzodiazepine receptor (unknown origin); parameters: species or system Homo sapiens
[38] = Unbound brain concentration in amphetamine-induced hyperlocomotion male Sprague-Dawley rat model at 3 mg/kg, po; type: ADME, organism-based; conditions: in vivo
[39] = Glutathione reactivity in human liver microsomes incubated for 1 hr in presence of glutathione; type: ADME, Microsome
[40] = target: Metabotropic glutamate receptor 3 (Homo sapiens, UniProt Q14832); experiment: Positive allosteric modulation of human mGlu3 receptor
[41] = tested on: Mus musculus; experiment: Reversal of MK-801 induced N1 sensory gating deficit in male C57BL/6JRj mouse model assessed as improvement in cognitive deficits at 10 mg/kg, sc; type: functional, organism-based
[42] = target: T1, Metabotropic glutamate receptor 1; experiment: Antagonist activity at mGlu1 receptor (unknown origin) assessed as desensitization of receptor at EC80 concentration; conditions: filed as antagonist
Target sequence in this assay (Q13255 19-1194 limits assumed): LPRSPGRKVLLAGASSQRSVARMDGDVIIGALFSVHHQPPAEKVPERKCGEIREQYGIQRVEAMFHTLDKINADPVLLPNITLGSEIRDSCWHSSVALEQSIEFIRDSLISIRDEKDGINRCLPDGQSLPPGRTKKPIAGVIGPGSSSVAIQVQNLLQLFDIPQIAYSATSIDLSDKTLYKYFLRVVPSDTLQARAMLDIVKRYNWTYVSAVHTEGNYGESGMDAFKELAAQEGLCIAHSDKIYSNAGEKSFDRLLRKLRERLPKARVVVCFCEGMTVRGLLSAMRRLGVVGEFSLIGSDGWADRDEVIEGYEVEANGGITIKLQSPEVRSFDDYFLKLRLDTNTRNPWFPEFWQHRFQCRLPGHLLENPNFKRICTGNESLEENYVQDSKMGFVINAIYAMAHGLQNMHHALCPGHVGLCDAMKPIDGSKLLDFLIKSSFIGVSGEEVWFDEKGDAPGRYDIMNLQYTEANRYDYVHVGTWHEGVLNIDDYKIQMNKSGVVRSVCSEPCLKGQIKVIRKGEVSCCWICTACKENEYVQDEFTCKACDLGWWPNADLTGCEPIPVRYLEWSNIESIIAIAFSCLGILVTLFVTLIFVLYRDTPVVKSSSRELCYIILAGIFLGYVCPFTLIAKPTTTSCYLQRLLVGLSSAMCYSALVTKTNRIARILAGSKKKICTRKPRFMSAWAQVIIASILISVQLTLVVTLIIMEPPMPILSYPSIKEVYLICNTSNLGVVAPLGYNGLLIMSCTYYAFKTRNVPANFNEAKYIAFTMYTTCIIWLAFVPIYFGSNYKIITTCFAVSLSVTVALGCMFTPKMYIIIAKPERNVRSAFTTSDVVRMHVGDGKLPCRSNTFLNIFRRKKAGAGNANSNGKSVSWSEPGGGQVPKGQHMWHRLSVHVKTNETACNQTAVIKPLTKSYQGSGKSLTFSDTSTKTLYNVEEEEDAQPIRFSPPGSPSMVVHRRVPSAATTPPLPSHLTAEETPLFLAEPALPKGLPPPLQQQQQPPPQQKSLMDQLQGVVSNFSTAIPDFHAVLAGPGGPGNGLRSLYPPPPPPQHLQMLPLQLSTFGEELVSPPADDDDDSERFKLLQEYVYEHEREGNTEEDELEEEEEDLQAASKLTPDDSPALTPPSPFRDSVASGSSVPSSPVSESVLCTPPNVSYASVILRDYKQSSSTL

[43] = Toxicity in male Wistar rat assessed as improvement in sleep-wake profile by measuring quiet wake state at 10 mg/kg, po measured at 120 mins post treatment by EEG analysis; type: organism-based; conditions: in vivo, 2 h
[44] = target: Metabotropic glutamate receptor 4 (Homo sapiens, UniProt Q14833); experiment: Positive allosteric modulation of human mGlu4 receptor
[45] = tested on: Mus musculus; experiment: Antipsychotic efficacy against amphetamine-induced hyperlocomotion in male C57Bl/6 mouse assessed as reversal of hyperlocomotive state administered ip and pretreated with compound followed by amphetamine addition for 60 mins and measured after 90 mins; type: functional, organism-based; conditions: dose 3-30 mg/kg
[46] = Toxicity in male Sprague-Dawley rat assessed as catalepsy at 1 to 10 mg/kg, po measured after 60 mins; type: organism-based; conditions: in vivo, 1 h, dose 1-10 mg/kg
[47] = target: Metabotropic glutamate receptor 4 (Rattus norvegicus, UniProt P31423); experiment: Positive allosteric modulation of rat mGlu4 receptor
[48] = Toxicity in male Wistar rat assessed as reduction in beta power at 10 mg/kg, po measured at 60 to 240 mins post treatment by EEG analysis; type: organism-based; conditions: in vivo, time 60-240 min
[49] = Toxicity in male Wistar rat assessed as reduction in rapid eye movement sleep at 1 to 10 mg/kg, po measured at 30 to 120 mins post treatment by EEG analysis; type: organism-based; conditions: in vivo, dose lower 1 mg/kg, time lower 30 min, dose upper 10 mg/kg, time upper 120 min
[50] = target: Metabotropic glutamate receptor 8 (Rattus norvegicus, UniProt P70579); experiment: Positive allosteric modulation of rat mGlu8 receptor
[51] = Toxicity in male Wistar rat assessed as reduction in alpha power at 10 mg/kg, po measured at 60 to 240 mins post treatment by EEG analysis; type: organism-based; conditions: in vivo, time 60-240 min
[52] = tested on: Mus musculus; experiment: Reversal of MK-801 induced deficits in sc dosed male C57BL/6JRj mouse model assessed as 40 Hz ASSR in prefrontal cortex measured after 15 mins; type: functional, organism-based; conditions: dose 0.8-3 mg/kg
[53] = Cmax in amphetamine-induced male Sprague-Dawley rat model at 60 mg/kg and measured at 3.33 hrs post administration; type: ADME, organism-based; conditions: in vivo
[54] = target: T1, Metabotropic glutamate receptor 1; experiment: Agonist activity at mGlu1 receptor (unknown origin) upto 30 uM; type: functional
Target sequence in this assay (Q13255 19-1194 limits assumed): as above

[55] = target: T1, Metabotropic glutamate receptor 1; experiment: Positive allosteric modulation of mGlu1 receptor (unknown origin) in presence of glutamate at EC20 concentration; conditions: filed as positive allosteric modulator
Target sequence in this assay (Q13255 19-1194 limits assumed): as above

[56] = Drug metabolism in rat liver microsomes assessed as furanyl ring opening incubated for 60 mins; type: ADME, Microsome; conditions: 1 h

Metabotropic glutamate receptor 5 (Homo sapiens, UniProt P41594), sequence (P41594 whole entry): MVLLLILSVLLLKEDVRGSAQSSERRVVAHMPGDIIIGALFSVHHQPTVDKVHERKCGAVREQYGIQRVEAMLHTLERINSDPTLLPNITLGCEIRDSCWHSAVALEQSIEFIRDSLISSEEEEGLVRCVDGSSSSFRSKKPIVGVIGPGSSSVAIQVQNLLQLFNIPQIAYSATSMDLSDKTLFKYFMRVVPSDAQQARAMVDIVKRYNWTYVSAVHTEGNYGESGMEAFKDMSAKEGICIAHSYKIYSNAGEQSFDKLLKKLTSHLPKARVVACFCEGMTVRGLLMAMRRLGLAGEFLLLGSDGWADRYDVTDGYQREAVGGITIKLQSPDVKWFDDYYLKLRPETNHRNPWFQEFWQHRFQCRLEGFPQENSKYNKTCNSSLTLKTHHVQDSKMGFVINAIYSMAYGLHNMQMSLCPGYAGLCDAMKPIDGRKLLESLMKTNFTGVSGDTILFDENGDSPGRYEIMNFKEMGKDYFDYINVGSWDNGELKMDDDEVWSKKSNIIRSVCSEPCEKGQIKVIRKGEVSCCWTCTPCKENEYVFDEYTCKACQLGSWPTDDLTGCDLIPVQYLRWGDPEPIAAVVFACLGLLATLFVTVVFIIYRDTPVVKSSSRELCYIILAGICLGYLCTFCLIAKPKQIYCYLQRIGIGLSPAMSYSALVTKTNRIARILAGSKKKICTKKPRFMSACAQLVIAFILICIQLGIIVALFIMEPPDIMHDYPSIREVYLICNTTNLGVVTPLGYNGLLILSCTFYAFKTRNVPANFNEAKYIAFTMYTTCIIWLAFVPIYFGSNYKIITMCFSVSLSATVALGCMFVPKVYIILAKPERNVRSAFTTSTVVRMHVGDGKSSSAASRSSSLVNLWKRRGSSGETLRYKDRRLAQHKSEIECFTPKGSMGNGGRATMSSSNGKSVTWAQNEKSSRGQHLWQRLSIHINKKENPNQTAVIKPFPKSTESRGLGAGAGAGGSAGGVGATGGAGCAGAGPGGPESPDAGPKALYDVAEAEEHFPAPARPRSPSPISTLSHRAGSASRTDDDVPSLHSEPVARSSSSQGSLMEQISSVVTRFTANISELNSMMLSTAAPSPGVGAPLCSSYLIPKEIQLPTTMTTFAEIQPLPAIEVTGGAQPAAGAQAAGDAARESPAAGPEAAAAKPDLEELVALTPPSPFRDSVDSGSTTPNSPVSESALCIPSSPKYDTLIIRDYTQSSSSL
Metabotropic glutamate receptor 3 (Rattus norvegicus, UniProt P31422), sequence (P31422 whole entry): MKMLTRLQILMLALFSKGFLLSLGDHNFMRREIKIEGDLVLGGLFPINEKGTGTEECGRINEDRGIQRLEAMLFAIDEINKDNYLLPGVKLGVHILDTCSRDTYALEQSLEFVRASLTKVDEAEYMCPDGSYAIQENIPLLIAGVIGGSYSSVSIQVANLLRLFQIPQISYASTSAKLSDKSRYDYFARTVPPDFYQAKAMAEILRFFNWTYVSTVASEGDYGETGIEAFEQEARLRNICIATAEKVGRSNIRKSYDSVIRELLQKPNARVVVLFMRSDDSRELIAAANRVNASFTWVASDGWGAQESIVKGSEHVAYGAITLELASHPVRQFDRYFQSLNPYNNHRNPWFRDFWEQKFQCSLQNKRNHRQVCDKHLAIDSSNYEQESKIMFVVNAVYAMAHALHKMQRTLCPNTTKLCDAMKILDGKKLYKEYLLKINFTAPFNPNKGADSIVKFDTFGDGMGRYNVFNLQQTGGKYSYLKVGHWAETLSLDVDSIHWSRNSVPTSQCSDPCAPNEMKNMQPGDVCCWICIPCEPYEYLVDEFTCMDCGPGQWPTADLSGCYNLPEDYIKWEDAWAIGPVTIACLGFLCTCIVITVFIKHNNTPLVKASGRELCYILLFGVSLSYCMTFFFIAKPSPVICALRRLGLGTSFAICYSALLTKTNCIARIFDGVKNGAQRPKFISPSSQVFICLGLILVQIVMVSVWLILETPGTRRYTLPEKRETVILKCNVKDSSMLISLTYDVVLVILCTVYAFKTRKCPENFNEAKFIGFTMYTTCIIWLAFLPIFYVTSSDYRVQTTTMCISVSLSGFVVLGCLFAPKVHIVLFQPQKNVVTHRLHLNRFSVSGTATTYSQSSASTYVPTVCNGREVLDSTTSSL
Metabotropic glutamate receptor 4 (Rattus norvegicus, UniProt P31423), sequence (P31423 whole entry): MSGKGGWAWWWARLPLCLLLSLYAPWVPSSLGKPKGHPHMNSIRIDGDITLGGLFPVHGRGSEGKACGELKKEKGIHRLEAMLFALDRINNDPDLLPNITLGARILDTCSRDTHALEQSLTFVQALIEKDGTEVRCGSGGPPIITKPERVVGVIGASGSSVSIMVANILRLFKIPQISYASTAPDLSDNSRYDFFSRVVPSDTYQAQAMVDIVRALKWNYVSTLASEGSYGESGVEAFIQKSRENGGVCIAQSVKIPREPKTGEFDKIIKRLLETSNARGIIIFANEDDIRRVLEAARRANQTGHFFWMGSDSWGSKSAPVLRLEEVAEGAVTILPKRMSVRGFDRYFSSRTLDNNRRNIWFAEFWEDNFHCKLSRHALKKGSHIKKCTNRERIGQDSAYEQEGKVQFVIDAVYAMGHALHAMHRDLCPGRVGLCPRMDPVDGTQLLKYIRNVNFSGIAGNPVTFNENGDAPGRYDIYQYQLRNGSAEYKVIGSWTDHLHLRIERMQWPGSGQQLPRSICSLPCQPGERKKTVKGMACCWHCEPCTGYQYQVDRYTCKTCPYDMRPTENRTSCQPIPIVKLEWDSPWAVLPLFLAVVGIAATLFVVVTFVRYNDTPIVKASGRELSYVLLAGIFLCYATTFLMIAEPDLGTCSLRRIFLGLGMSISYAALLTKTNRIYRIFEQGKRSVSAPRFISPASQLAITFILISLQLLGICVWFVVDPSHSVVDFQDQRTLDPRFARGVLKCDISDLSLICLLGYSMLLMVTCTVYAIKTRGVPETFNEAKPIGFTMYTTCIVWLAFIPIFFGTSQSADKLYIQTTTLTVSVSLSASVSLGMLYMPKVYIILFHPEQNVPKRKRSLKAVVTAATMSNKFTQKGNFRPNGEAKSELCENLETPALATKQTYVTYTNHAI

pEC50 [1]: 7.89
C0(unbound) [2]: 36.4 nM
concentration [3]: 1100 nM
SMILES: Cc1ccc2c(c1)C(=O)N(c1ccc(NC(=O)c3occc3C)c(F)c1)C2=O

SMILES: O=C(CCCN1CCC(O)(c2ccc(Cl)cc2)CC1)c1ccc(F)cc1 [HALOPERIDOL]
Activity [4]: Toxic

pEC50 [5]: < 4.52
pEC50 [6]: < 4.52
pEC50 [7]: < 4.52
pEC50 [8]: < 4.52
Drug metabolism [10]: metabolite_notdetected
Drug metabolism [11]: metabolite_notdetected
Drug metabolism [13]: metabolite_notdetected
pEC50 [14]: < 4.52
Drug uptake(free) [16]: 32 nM
Drug metabolism [17]: metabolite_detected
Drug uptake(free) [19]: 44 nM
pEC50 [20]: < 4.52
Drug uptake(free) [21]: 100 nM
Drug uptake(free) [22]: 44 nM
Drug uptake(free) [27]: 40 nM
pEC50 [29]: < 4.52
pEC50 [30]: < 4.52
Stability [34]: Stable
C0(unbound) [35]: 80 nM
Stability [36]: Stable
pIC50 [37]: 6.68
Drug uptake(free) [38]: 40 nM
Drug metabolism [39]: metabolite_detected
pEC50 [40]: < 4.52
pEC50 [44]: < 4.52
pEC50 [47]: < 4.52
pEC50 [50]: < 4.52
Cmax [53]: 313 nM
Activity [54]: inactive
Activity [55]: Active
Drug metabolism [56]: metabolite_notdetected
SMILES: Cn1nc(-c2ccnn2C)cc1CNC(=O)c1cc(-c2ccco2)ccc1Cl
Activity [9]: Non-toxic
Activity [12]: Non-toxic
Activity [15]: Non-toxic
Activity [18]: Dose-dependent-effect
Activity [23]: Non-toxic
Activity [24]: Dose-dependent-effect
Activity [25]: Active
Activity [26]: 27.3%
Activity [28]: 25.1%
Activity [31]: Non-toxic
Activity [32]: inactive
Activity [33]: Non-toxic
Activity [41]: Active
Activity [42]: Active; Slight Desensitization Was Observed
Activity [43]: Non-toxic
Activity [45]: Dose-dependent-effect
Activity [46]: Non-toxic
Activity [48]: Non-toxic
Activity [49]: Non-toxic
Activity [51]: Non-toxic
Activity [52]: Active
